How the values were obtained:
[1] = system: Human Keratinocyte monolayers; assay: Western blot analysis of extracellular IFI16 in supernatants of cells undergoing cell death; format: cell-based; settings: 16 h after treatment, TCA-concentrated supernatant, immunoblotting
Protocol: (§1) Human Keratinocyte monolayers were UVB-irradiated at different doses (200, 400, and 800 J/m^2 respectively), treated with 2 μM Doxorubicin (Doxo) and 80 μM Etoposide (VP-16), or left untreated. At 16 h after treatment, the supernatant was collected and separated for determination of extracellular IFI16, while the remaining cells were lysed for determination of the intracellular cleaved form of PARP (determination of undergoing cell death). Collected supernatants were concentrated with TCA 25% as described in Example 4. […]
Supernatants of human primary keratinocytes cultured in serum-free medium (Epilife, Cascade Biologics, USA) were subjected to precipitation with trichloroacetic acid (TCA). Precipitated protein were analyzed by immunoblotting. […]
(§2) Migrated proteins were transferred to nitrocellulose. The membranes were blocked in TBS/0.05% Tween20/5% BSA and extracellular IFI16 was detected by incubation of the membrane bearing surnatants samples with anti-IFI16 mouse monoclonal antibody (clone 1G7, Santa Cruz, Calif., USA). The intracellular cleaved form of PARP was detected by incubation of the membrane bearing cell extract samples by rabbit anti-PARP cleaved antibody (GTX24830, GeneTex, CA, USA). […]

[2] = system: Human Keratinocyte monolayers; assay: Intracellular cleaved form of PARP (determination of undergoing cell death) by immunoblotting; format: cell-based; settings: 16 h after treatment, cell lysate
Protocol: as §1, with “4. An equal amount of total cellular protein per sample and an equal volume of concentrated supernatants were fractionated on SDS-PAGE (7.5% of NEXT GEL Amresco, OH, USA) and transferred to a nitrocellulose membrane (Biorad, CA, USA).” for “4.”
As control of the undergoing cell death induced by the treatment with UVB-irradiation and Doxo or VP-16, also the intracellular PARP cleavage was determined in the exposed keratinocyte. […]
as §2

| SMILES | presence of extracellular IFI16 in supernatants ([1]; 2 μM Doxorubicin) | cell death as demonstrated by PARP cleavage ([2]; 2 μM Doxorubicin) | presence of extracellular IFI16 in supernatants ([1]; 80 μM Etoposide) | cell death as demonstrated by PARP cleavage ([2]; 80 μM Etoposide) |
| --- | --- | --- | --- | --- |
| COc1cccc2c1C(=O)c1c(O)c3c(c(O)c1C2=O)C[C@@](O)(C(=O)CO)C[C@@H]3O[C@H]1C[C@H](N)[C@H](O)[C@H](C)O1 [Doxorubicin] | not observed | chemically-induced cell death |  |  |
| COc1cc([C@@H]2c3cc4c(cc3[C@@H](O[C@@H]3O[C@@H]5CO[C@@H](C)O[C@H]5[C@H](O)[C@H]3O)[C@H]3COC(=O)[C@H]23)OCO4)cc(OC)c1O [Etoposide] |  |  | not observed | chemically-induced cell death |

From patent US20110300529A1, “DETECTION OF IFI16 IN BODY FLUIDS” (NoToPharm srl, priority 2008, published 2011)
